Test results as given in patent US20240067631A1, “PYRAZOLE DERIVATIVES USEFUL AS NAMPT MODULATORS” (Cytokinetics, Inc., priority 2020, published 2024).

Target: human NAMPT (Homo sapiens (Human), UniProt P43490)
Experiment: Human recombinant enzyme assay (NMN fluorescence biochemical assay)
Conditions: 6 nM human NAMPT, 60 min; for AC1.4 Human: concentration of compound that generates 40% higher activity over basal; for EC50: concentration that gives half-maximal activation
Procedure: Compounds described herein were assayed for their ability to stimulate the synthesis of nicotinamide mononucleotide (NMN) by the enzyme NAMPT. The human recombinant enzyme assay measures the activation of the enzyme activity by compounds using recombinant enzyme and substrates in a buffered cell-free system. The assay conditions closely mimic cellular environments. Dose responses were measured using an assay to detect the formation of nicotinamide mono-nucleotide. All experiments were performed in the 384-well format. Generally, 0.5 μL of DMSO containing varying concentrations of the test compound was mixed with 10 μL of the enzyme reagent solution. Enzyme reactions were initiated with the addition of 10 μL of a solution containing the substrates. The final assay conditions were as follows: 6 nM human NAMPT, 2.5 mM ATP, […] in 50 mM HEPES, pH 7.2, 1 mM DTT, 1 mM CHAPS 50 mM NaCl, 100 mM MgCl2. Following an incubation of 60 min at ambient temperature, 10 μL of 20% acetophenone in DMSO was added, followed by 10 μL of 2 M KOH and 40 μL of formic acid. The plates were read for fluorescence (Excitation/Emission=355 nm/460 nm) using an EnVision plate reader after 40 mins of incubation at ambient temperature. The potency measurements for compounds, are quantified and represented as AC1.4 (the concentration of compounds that generates 40% higher activity over basal) and EC50 (concentration of the compound that gives half-maximal activation).

Chain of human NAMPT (P43490 whole entry): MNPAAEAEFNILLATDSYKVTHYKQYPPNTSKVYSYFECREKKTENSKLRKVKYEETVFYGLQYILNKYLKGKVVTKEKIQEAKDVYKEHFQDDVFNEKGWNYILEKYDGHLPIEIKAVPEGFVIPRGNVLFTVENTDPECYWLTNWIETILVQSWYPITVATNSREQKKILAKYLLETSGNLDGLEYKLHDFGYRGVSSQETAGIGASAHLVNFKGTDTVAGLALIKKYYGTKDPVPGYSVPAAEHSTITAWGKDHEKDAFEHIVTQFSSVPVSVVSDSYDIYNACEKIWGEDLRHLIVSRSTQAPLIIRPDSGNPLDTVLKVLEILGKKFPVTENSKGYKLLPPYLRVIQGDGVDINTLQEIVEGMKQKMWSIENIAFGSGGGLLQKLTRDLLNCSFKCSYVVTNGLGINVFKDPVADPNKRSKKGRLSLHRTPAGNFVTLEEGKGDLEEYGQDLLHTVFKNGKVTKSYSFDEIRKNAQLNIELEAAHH

Row | SMILES | AC1.4 Human [µM] | EC50 [µM]
1 | Cc1nc(C(=O)NCCC(C)(C)C(F)(F)F)nc(NCCc2cn[nH]c2)c1C [Compound 143, 4-((2-(1H-pyrazol-4-yl)ethyl)amino)-5,6-dimethyl-N-(4,4,4-trifluoro-3,3-dimethylbutyl)pyrimidine-2-carboxamide] | 4.433 | 46
2 | Cc1nc(C(=O)N[C@H](C)c2ncccc2F)nc(NCCc2cn[nH]c2)c1C [Compound 56, (R)-4-((2-(1H-pyrazol-4-yl)ethyl)amino)-N-(1-(3-fluoropyridin-2-yl)ethyl)-5,6-dimethylpyrimidine-2-carboxamide] | 0.439 | 1.37
3 | Cc1nc(C(=O)NC(C)(C)c2ccccn2)nc(NCCc2cn[nH]c2)c1C [Compound 69, 4-((2-(1H-pyrazol-4-yl)ethyl)amino)-5,6-dimethyl-N-(2-(pyridin-2-yl)propan-2-yl)pyrimidine-2-carboxamide] | 0.5395 | 4.18
4 | Cc1nc(C(=O)N2CCC(c3c[nH]c4ccccc34)CC2)nc(NCCc2cn[nH]c2)c1C [Compound 6, (4-(1H-indol-3-yl)piperidin-1-yl)(4-((2-(1H-pyrazol-4-yl)ethyl)amino)-5,6-dimethylpyrimidin-2-yl)methanone] | 0.0385 | 1.84
5 | Cc1nc(C(=O)NC(C)c2ccon2)nc(NCCc2cn[nH]c2)c1C (centres unmarked) [Compound 90, 4-((2-(1H-pyrazol-4-yl)ethyl)amino)-N-(1-(isoxazol-3-yl)ethyl)-5,6-dimethylpyrimidine-2-carboxamide] | 1.17 | 9.24
6 | Cc1nc(C(=O)NC(C)c2cccc(Cl)n2)nc(NCCc2cn[nH]c2)c1C (centres unmarked) [Compound 36, 4-((2-(1H-pyrazol-4-yl)ethyl)amino)-N-(1-(6-chloropyridin-2-yl)ethyl)-5,6-dimethylpyrimidine-2-carboxamide] | 0.2015 | 0.882
7 | Cc1nc(C(=O)NCC(O)C(F)(F)F)nc(NCCc2cn[nH]c2)c1C (centres unmarked) [Compound 128, 4-((2-(1H-pyrazol-4-yl)ethyl)amino)-5,6-dimethyl-N-(3,3,3-trifluoro-2-hydroxypropyl)pyrimidine-2-carboxamide] | 3.235 | 28
8 | Cc1nc(C(=O)N2CCC2c2cccc(F)c2)nc(NCCc2cn[nH]c2)c1C (centres unmarked) [Compound 115, (4-((2-(1H-pyrazol-4-yl)ethyl)amino)-5,6-dimethylpyrimidin-2-yl)(2-(3-fluorophenyl)azetidin-1-yl)methanone] | 2.136 | 10.7
9 | Cc1nc(C(=O)N2CCC[C@@H]2c2ccc(F)cc2)nc(NCCc2cn[nH]c2)c1C [Compound 86, (R)-(4-((2-(1H-pyrazol-4-yl)ethyl)amino)-5,6-dimethylpyrimidin-2-yl)(2-(4-flurophenyl)pyrrolidin-1-yl)methanone] | 1.1115 | 8.04
10 | COc1cccc(CNC(=O)c2nc(C)c(C)c(NCCc3cn[nH]c3)n2)n1 [Compound 88, 4-((2-(1H-pyrazol-4-yl)ethyl)amino)-N-((6-methoxypyridin-2-yl)methyl)-5,6-dimethylpyrimidine-2-carboxamide] | 1.1435 | 7.21
11 | Cc1nc(C(=O)NC(C)(C)c2ccc(F)cc2)nc(NCCc2cn[nH]c2)c1C [Compound 83, 4-((2-(1H-pyrazol-4-yl)ethyl)amino)-N-(2-(4-fluorophenyl)propan-2-yl)-5,6-dimethylpyrimidine-2-carboxamide] | 0.9695 | 14.5
12 | Cc1nc(C(=O)N[C@H](C)c2coc3ccccc23)nc(NCCc2cn[nH]c2)c1C [Compound 65, (R)-4-((2-(1H-pyrazol-4-yl)ethyl)amino)-N-(1-(benzofuran-3-yl)ethyl)-5,6-dimethylpyrimidine-2-carboxamide] | 0.4805 | 1.69
13 | Cc1nc(C(=O)N2CC(O)(C(F)(F)F)C2)nc(NCCc2cn[nH]c2)c1C [Compound 48, (4-((2-(1H-pyrazol-4-yl)ethyl)amino)-5,6-dimethylpyrimidin-2-yl)(3-hydroxy-3-(trifluoromethyl)azetidin-1-yl)methanone] | 0.2925 | 6.83
14 | Cc1nc(C(=O)N2CCC(C#N)(c3ccccc3)CC2)nc(NCCc2cn[nH]c2)c1C [Compound 96, 1-(4-((2-(1H-pyrazol-4-yl)ethyl)amino)-5,6-dimethylpyrimidine-2-carbonyl)-4-phenylpiperidine-4-carbonitrile] | 1.3075 | 8.51
15 | COc1cccnc1[C@@H](C)NC(=O)c1nc(C)c(C)c(NCCc2cn[nH]c2)n1 [Compound 124, (R)-4-((2-(1H-pyrazol-4-yl)ethyl)amino)-N-(1-(3-methoxypyridin-2-yl)ethyl)-5,6-dimethylpyrimidine-2-carboxamide] | 2.6905 | 12
16 | Cc1nc(C(=O)NCCS(=O)(=O)Cc2ccccc2)nc(NCCc2cn[nH]c2)c1C [Compound 141, 4-((2-(1H-pyrazol-4-yl)ethyl)amino)-N-(2-(benzylsulfonyl)ethyl)-5,6-dimethylpyrimidine-2-carboxamide] | 3.8305 | 20.3
17 | Cc1nc(C(=O)N2CC(O)(c3ccccc3F)C2)nc(NCCc2cn[nH]c2)c1C [Compound 77, (4-((2-(1H-pyrazol-4-yl)ethyl)amino)-5,6-dimethylpyrimidin-2-yl)(3-(2-fluorophenyl)-3-hydroxyazetidin-1-yl)methanone] | 0.8835 | 13.7
18 | Cc1nc(C(=O)N[C@H](C)c2ccc(F)cn2)nc(NCCc2cn[nH]c2)c1C [Compound 118, (R)-4-((2-(1H-pyrazol-4-yl)ethyl)amino)-N-(1-(5-fluoropyridin-2-yl)ethyl)-5,6-dimethylpyrimidine-2-carboxamide] | 2.384 | 11.8
19 | COC1(c2ccccc2)CN(C(=O)c2nc(C)c(C)c(NCCc3cn[nH]c3)n2)C1 [Compound 102, (4-((2-(1H-pyrazol-4-yl)ethyl)amino)-5,6-dimethylpyrimidin-2-yl)(3-methoxy-3-phenylazetidin-1-yl)methanone] | 2.0105 | 12.9
20 | Cc1nc(C(=O)N2CC(O)(C3CC3)C2)nc(NCCc2cn[nH]c2)c1C [Compound 97, (4-((2-(1H-pyrazol-4 yl)ethyl)amino)-5,6-dimethylpyrimidin-2-yl)(3-cyclopropyl-3-hydroxyazetidin-1-yl)methanone] | 6.337 | 22.3
21 | Cc1cccc(F)c1NC(=O)c1nc(C)c(C)c(NCCc2cn[nH]c2)n1 [Compound 139, 4-((2-(1H-pyrazol-4-yl)ethyl)amino)-N-(2-fluoro-6-methylphenyl)-5,6-dimethylpyrimidine-2-carboxamide] | 3.809 | 28.5
22 | Cc1cccnc1[C@@H](C)NC(=O)c1nc(C)c(C)c(NCCc2cn[nH]c2)n1 [Compound 37, (R)-4-((2-(1H-pyrazol-4-yl)ethyl)amino)-5,6-dimethyl-N-(1-(3-methylpyridin-2-yl)ethyl)pyrimidine-2-carboxamide] | 0.2055 | 1.19
23 | Cc1nc(C(=O)NCc2cccc(F)n2)nc(NCCc2cn[nH]c2)c1C [Compound 55, 4-((2-(1H-pyrazol-4-yl)ethyl)amino)-N-((6-fluoropyridin-2-yl)methyl)-5,6-dimethylpyrimidine-2-carboxamide] | 0.375 | 4.68
24 | Cc1nc(C(=O)N2CCCC2Cc2ccccc2)nc(NCCc2cn[nH]c2)c1C (centres unmarked) [Compound 71, (4-((2-(1H-pyrazol-4-yl)ethyl)amino)-5,6-dimethylpyrimidin-2-yl)(2-benzylpyrrolidin-1-yl)methanone] | 0.5835 | 6.07
25 | Cc1nc(C(=O)N2CC[C@H](c3ccccc3)C2)nc(NCCc2cn[nH]c2)c1C [Compound 52, (R)-(4-((2-(1H-pyrazol-4-yl)ethyl)amino)-5,6-dimethylpyrimidin-2-yl)(3-phenylpyrrolidin-1-yl)methanone] | 0.3305 | 1.78
26 | Cc1nc(C(=O)NC(C)c2ccncc2F)nc(NCCc2cn[nH]c2)c1C (centres unmarked) [Compound 110, 4-((2-(1H-pyrazol-4-yl)ethyl)amino)-N-(1-(3-fluoropyridin-4-yl)ethyl)-5,6-dimethylpyrimidine-2-carboxamide] | 1.9815 | 16.2
27 | Cc1nc(C(=O)NCc2n[nH]c3ccccc23)nc(NCCc2cn[nH]c2)c1C [Compound 105, N-((1H-indazol-3-yl)methyl)-4-((2-(1H-pyrazol-4-yl)ethyl)amino)-5,6-dimethylpyrimidine-2-carboxamide] | 1.669 | 2.52
28 | Cc1nc(C(=O)N2CC(O)(c3cccc(F)c3F)C2)nc(NCCc2cn[nH]c2)c1C [Compound 51, (4-((2-(1H-pyrazol-4-yl)ethyl)amino)-5,6-dimethylpyrimidin-2-yl)(3-(2,3-difluorophenyl)-3-hydroxyazetidin-1-yl)methanone] | 0.327 | 1.88
